We go through 24 compounds from ChEMBL document CHEMBL1201862, “PubChem BioAssay data set” (2004).

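Compound exposure: 48 hours, 5 concentrations, 96-well plates. GI50: concentration for 50% inhibition of growth.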 Active and inactive are the calls of the source. No stated cut-off is given here; in the data, active = GI50 up to about 1.1 µM and inactive = higher. Bounds are passed on as bounds.

Holding throughout (experiment): inhibition of tumour cell growth, NCI panel, 48 h
The subject of test [1] is MDA-MB-231.
Test [2] concerns MDA-N.
In test [3] the test system is Hs-578T.
Test [4] has as its system BT-549.
For test [5], the system named is 786-0.
In test [6] the test system is XF498.
The subject of test [7] is M19-MEL.
In test [8] the test system is LXFL 529.
Test [9] has as its system RXF 631.

Take `CCOC(=O)C(NC(=O)CC)(Nc1ccccc1OC)C(F)(F)F` (stereo not drawn): the GI50 in test [1], in test [2] and in test [3] was > 100 µM (inactive) each time.

Turning to `COc1nc(Cl)c(Cl)c(Cl)n1.COc1nc(Cl)nc(Cl)c1Cl`, the GI50 in test [4] was 9.93 µM (inactive); in test [1], 17.2 µM (inactive); in test [3] it was 3.91 µM (inactive); in [5], 14.2 µM (inactive).

As to `Cc1c2c(cc3c1[nH]c1ccccc13)C=NCC2`, the GI50 was 7.14 µM (inactive) in test [6] and 11.1 µM (inactive) in [7].

Take `N/C(=C\c1ccc(/C=C(\NC(=O)c2ccccc2)c2nc3c([nH]2)C(=O)c2ccccc2C3=O)cc1)c1nc2c([nH]1)C(=O)c1ccccc1C2=O`: the GI50 is 11.6 µM (inactive) in [6] and 10.7 µM (inactive) in [8].

Regarding `CCOC(=O)/C=C(\C)c1ccc(OC)cc1`, the GI50 in [6] and in test [8] was > 100 µM (inactive) each time.

Take `CC(=O)NC1=C[C@@H]([C@H]2COC(C)(C)O2)OC1=O`: the GI50 in test [6] was > 82.8 µM (inactive); in test [7], > 100 µM (inactive).

As for `OCCNCN(CNCCO)c1nc(N(CNCCO)CNCCO)nc(N(CNCCO)CNCCO)n1`, the GI50 was > 0.4 µM (active) in [6], 0.04 µM (active) in [8] and 0.0405 µM (active) in test [7].

Regarding `CCCCOc1ccc(OCCCCCCCCCC[N+](C)(C)C)cc1`, the GI50 in test [6] was 1.71 µM (inactive).

Consider `CCOC(=O)c1csc(NC(=O)CCN(CC)CC)n1`, for which the values for the GI50 in [1] and in test [2] were 50.5 µM (inactive) and 45.5 µM (inactive), respectively.

As to `N=C(N)Nc1ncccc1[N+](=O)[O-]`, the GI50 in test [6] was > 100 µM (inactive).

`Oc1cc(CN2COc3ccccc32)c(O)cc1CNC1CCCCC1`: the GI50 in test [4] was 29.9 µM (inactive); in test [1], 21.9 µM (inactive); in test [2], 17.7 µM (inactive); in [3], 28.7 µM (inactive); in [5] it was 18.5 µM (inactive).

`O=C(O[C@@H](/C=C/c1ccccc1)P1(=O)N(Cc2ccccc2)[C@H]2CCCC[C@@H]2N1Cc1ccccc1)c1ccccc1`: the GI50 in [4] is 5.96 µM (inactive); in [1], 2.29 µM (inactive); in [2], 4.22 µM (inactive); in [3], 13.6 µM (inactive); in [5], 4.32 µM (inactive).

On to `CCOC(=O)/C(C#N)=C1/SC(C(=O)N/N=C/c2ccc(OC)cc2)=C(N)N1c1ccccc1`, for which the GI50 in test [8] is 60.4 µM (inactive); in test [7], > 100 µM (inactive).

Regarding `CC(=O)OC1COC(Nn2c(=O)[nH]c3ccccc3c2=O)C(OC(C)=O)C1OC(C)=O` (stereo not drawn), the GI50 in [4] was > 100 µM (inactive); in [1], > 100 µM (inactive); in [2], > 100 µM (inactive); in test [3], 13.6 µM (inactive); in [5], > 100 µM (inactive).

In the case of `CSc1nc(NC2OCC(O)C(O)C2O)c(N)c(=O)[nH]1` (stereo not drawn), in test [7], the GI50 was > 100 µM (inactive).

Take `COc1cc2c(cc1OC)C(C)N(C)c1c-2c(OC(C)=O)cc2cc(OC)c(OC)cc12` (stereo not drawn): the GI50 was 18.2 µM (inactive) in test [4]; 5.92 µM (inactive) in test [1]; 14.6 µM (inactive) in [2]; 19.1 µM (inactive) in test [3]; 13.1 µM (inactive) in test [5].

As to `COCCOCC(=O)N(CCn1ccc(NC(c2ccccc2)(c2ccccc2)c2ccccc2)nc1=O)CCn1cnc2nc(N)[nH]c(=O)c21`, the GI50 in test [9], in test [8] and in [5] was > 100 µM (inactive) throughout.

As for `COc1ccc(/C=N/N=C(N)N)c(C(=O)O)c1OC`, the GI50 in test [8] is > 100 µM (inactive).

Take `Nc1nc(SCCNC(=O)CCc2ccc(O)c(I)c2)nc2c1ncn2C1OC(CO)C(O)C1O` (stereo not drawn): the GI50 in test [6], in test [8] and in test [7] was > 100 µM (inactive) in each case.

With `C/N=c1/ssc(=S)n1C(C)C`, the figures for the GI50 in test [8] and in test [7] were 4.18 µM (inactive) and 13.7 µM (inactive), respectively.

Take `COc1c2c(cc3c1-c1c(cc4c(c1OC)OCO4)C1OC3C(C)C1C)OCO2.COc1cc2c(c(OC)c1OC)-c1c(cc3c(c1OC)OCO3)C1OC2C(C)C1C` (stereo not drawn): the GI50 in [4] is 61.2 µM (inactive); in test [1], 8 µM (inactive); in test [2], > 100 µM (inactive); in test [3], > 100 µM (inactive); in [5], > 100 µM (inactive).

For `O=c1c(Cc2c(O)oc3cc(O)ccc3c2=O)c(O)oc2cc(O)ccc12`, the GI50 is > 100 µM (inactive) in test [4], > 100 µM (inactive) in [1], > 100 µM (inactive) in test [2] and 94.4 µM (inactive) in [3].

As for `CC1(C)C(O)C[C@@H](O)[C@@]2(C)C1CC[C@]1(C)C2C[C@@H](O)[C@@H]2C([C@@]3(C)CC[C@@H](C(C)(C)O)O3)CCC21C` (stereo partly drawn), the GI50 is 18.2 µM (inactive) in [6], 10.2 µM (inactive) in [8] and 15.3 µM (inactive) in test [5].

In the case of `Nc1[nH]cnc2ncnc1-2` [ADENINE], the results for the GI50 in test [6] and in test [7] were 9.4 µM (inactive) and > 141 µM (inactive), respectively.
